Data as given in patent US20230065953A1, “NOVEL HETEROARYL-TRIAZOLE COMPOUNDS AS PESTICIDES” (Bayer Aktiengesellschaft, priority 2019, published 2023).

Experiments:
Format in all cases: in vivo
[1] = system: adult mosquitoes Culex quinquefasciatus strain P00; assay: whole plant or invertebrate; details: read-out: efficacy (mortality)
Method: Culex quinquefasciatus Test (CULXFA Surface Treatment & Contact Assay) • Solvent: Aceton+2000 ppm rapeseed oil methyl ester (RME)
(§1) In order to produce a sufficient, active ingredient containing solution it is necessary to solve the test compound in the solvent-mix (acetone at 2 mg/ml/RME 2 OOOppm). This solution is pipetted onto a glazed tile and after evaporation of the acetone, adult mosquitoes of the species Culex quinquefasciatus strain P00 are placed onto the dried surface. The exposure time is 30 minutes.
(§2) Mortality in percent (%) is determined 24 hours after contact of the insects to the treated surface. 100% mortality means that all tested insects are dead, whereas 0% means that no insect died.

[2] = system: adult mosquitoes Aedes aegypti strain MONHEIM; assay: Aedes aegypti test (AEDSAE surface treatment & contact assay); details: 24 hours after contact, read-out: efficacy (mortality); for mortality at 4 mg/m2: surface concentration 4 mg/m^2, 30 min exposure; for mortality at 20 mg/m2: surface concentration 20 mg/m^2, 30 min exposure
Outline: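 Test compound in acetone (2 mg/ml) with 2000 ppm rapeseed oil methyl ester was dried onto a glazed tile. Adult Aedes aegypti MONHEIM were exposed to the treated surface for 30 minutes. Percent mortality was scored 24 hours after contact.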

[3] = system: adult mosquitoes Anopheles funestus strain FUMOZ-R; assay: Anopheles funestus test (ANPHFU surface treatment & contact assay); details: surface concentration 4 mg/m^2, 30 min exposure, 24 hours after contact, read-out: efficacy (mortality)
Method: Anopheles funestus Test (ANPHFU Surface Treatment & Contact Assay) • Solvent: Aceton+2000 ppm rapeseed oil methyl ester (RME)
as §1, with “2000 ppm).” for “2 OOOppm).”, “Anopheles funestus” for “Culex quinquefasciatus”, “FUMOZ-R (Hunt et al., Med. Vet. Entomol. 2005 September; 19(3): 271-275)” for “P00”
as §2

[4] = system: cattle ticks (Rhipicephalus microplus) strain Parkhurst, SP-resistant; assay: Rhipicephalus (Boophilus) microplus dip test; details: 100 ppm, egg deposition after 7 days
Method: Rhipicephalus (Boophilus) Microplus—Dip Test
Test animal: cattle ticks (Rhipicephalus microplus) strain Parkhurst, SP-resistant
Solvent: dimethyl sulfoxide
To produce a suitable preparation of active compound, 10 mg of active compound are dissolved in 0.5 mL solvent, and the concentrate is diluted with water to the desired concentration.
This compound solution is pipetted into tubes. 8-10 engorged, adult, female cattle ticks (Rhipicephalus microplus) are placed in perforated tubes. These tubes are immersed in the aqueous compound solution until the ticks are completely moistened. After the liquid has drained off, the ticks are transferred to a filter paper in a plastic tray and stored in a climate chamber.
After 7 days egg deposition of fertile eggs is monitored. Eggs where fertility is not visible are stored in a climate chamber till hatching after about 42 days. An efficacy of 100% means all eggs are infertile; 0% means all eggs are fertile.

[5] = system: Rhipicephalus microplus larvae (strain Parkhurst, resistant against synthetic pyrethroids); assay: Rhipicephalus (Boophilus) microplus in-vitro contact test, larval cattle tick; details: 5 μg/cm^2 (=500 g/ha), after 48 hours, read-out: efficacy (larvae dead or moribund)
Outline: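 Compound in acetone coated onto the inner walls of glass tubes (900 ppm giving 5 μg/cm^2), solvent evaporated, then 20–50 larvae added and held at 27 °C, 85% RH. After 48 h, efficacy scored from negative geotactic behaviour as % dead or moribund larvae.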

[6] = system: brown planthopper (Nilaparvata lugens); assay: Nilaparvata lugens spray test; details: 96 h, 100 g/ha, rice plants, after 4 days
Outline: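 Compound was formulated in acetone/DMF and diluted in water with 1000 ppm alkylarylpolyglycol ether emulsifier. Rice plants were sprayed with this preparation, then infested with brown planthoppers. Percent mortality was scored after 4 days.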

[7] = system: green peach aphid (Myzus persicae); assay: Myzus persicae spray test; details: foliar, 120 h, Chinese cabbage leaf disks, after 5 days
Outline: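 Percent mortality read 5 days after spraying, where 100% is total kill and 0% none. The spray contained compound in acetone plus dimethylformamide, diluted with 1000 ppm emulsifier water. It was applied to Brassica pekinensis leaf disks carrying mixed-instar green peach aphids.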

[8] = system: larvae of the southern green stink bug (Nezara viridula); assay: Nezara viridula spray test; details: in Hordeum vulgare, 96 h
Outline: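 Mortality (%) of stink bug larvae on treated barley (Hordeum vulgare) was scored 4 days after infestation. Test solutions came from an acetone/DMF concentrate diluted with water containing 1000 ppm emulsifier and were sprayed onto plants before larvae were added.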

Question: Which results are given for `C[C@H](NC(=O)c1cc(C(F)(F)F)cc(C(F)(F)F)c1)c1ncnn1-c1ncc(C#N)s1` [I-2]?
Answer: mortality at 4 mg/m2 [1]: 80 to 100%; mortality at 4 mg/m2 [2]: 80 to 100%; mortality at 20 mg/m2 [2]: 80 to 100%; mortality at 4 mg/m2 [3]: 80 to 100%; efficacy (infertile eggs) [4]: 100%; pest or weed control at 5 µg/cm2 [5]: 100%

Question: Which results are given for `Cc1nc([C@H](C)NC(=O)c2cc(C(F)(F)F)cc(C(F)(F)F)c2)n(-c2ncc(C(=O)N(C)CC3CC3)s2)n1` [I-4]?
Answer: mortality at 100 g/ha [6]: 90%; mortality at 100 g/ha [7]: 90%; mortality at 20 mg/m2 [2]: 80 to 100%; pest or weed control at 5 µg/cm2 [5]: 100%

Question: For `Cc1nc([C@H](C)NC(=O)c2cc(C(F)(F)F)cc(C(F)(F)F)c2)n(-c2ncc(C(=O)N(C)C)s2)n1` [I-5, 2-(5-{(1S)-1-[3,5-bis(trifluoromethyl)benzamido]ethyl}-3-methyl-1H-1,2,4-triazol-1-yl)-N,N-dimethyl-1,3-thiazole-5-carboxamide], which mortality at 100 g/ha [6] is on record?
Answer: 100%

Question: What about the mortality at 100 g/ha [7] of the same compound?
Answer: 90%

Question: And the “efficacy (infertile eggs)” value [4]?
Answer: 100%

Question: What about the pest or weed control at 5 µg/cm2 [5] of the same compound?
Answer: 100%

Question: For `CCN(C)C(=O)c1cnc(-n2nc(C)nc2[C@H](C)NC(=O)c2cc(C(F)(F)F)cc(C(F)(F)F)c2)s1` [I-6], which mortality at 100 g/ha [6] is on record?
Answer: 100%

Question: What about the mortality at 100 g/ha [7] of the same compound?
Answer: 100%

Question: What about the mortality at 4 mg/m2 [2] of the same compound?
Answer: 80 to 100%

Question: What about the “efficacy (infertile eggs)” value [4] of the same compound?
Answer: 100%

Question: And the pest or weed control at 5 µg/cm2 [5]?
Answer: 100%

Question: Which results are given for `Cc1nc([C@H](C)NC(=O)c2cc(C(F)(F)F)cc(C(F)(F)F)c2)n(-c2ncc(C(=O)N(C)CC#N)s2)n1` [I-9]?
Answer: mortality at 100 g/ha [6]: 100%; mortality at 100 g/ha [7]: 100%; mortality at 100 g/ha [8]: 90%; mortality at 4 mg/m2 [2]: 80 to 100%; mortality at 20 mg/m2 [2]: 80 to 100%; efficacy (infertile eggs) [4]: 100%; pest or weed control at 5 µg/cm2 [5]: 100%

Question: Which results are given for `Cc1nc([C@H](C)NC(=O)c2cc(C(F)(F)F)cc(C(F)(F)F)c2)n(-c2ncc(C(N)=O)s2)n1` [I-21, 2-(5-{(1S)-1-[3,5-bis(trifluoromethyl)benzamido]ethyl}-3-methyl-1H-1,2,4-triazol-1-yl)-1,3-thiazole-5-carboxamide]?
Answer: mortality at 100 g/ha [7]: 100%; mortality at 100 g/ha [8]: 100%; mortality at 4 mg/m2 [2]: 80 to 100%; mortality at 20 mg/m2 [2]: 80 to 100%; pest or weed control at 5 µg/cm2 [5]: 100%
